Data from patent publication US9593136B2 (priority 2011, dated 2017).
Converted amounts (≈) assume the structure as drawn. Where two headings read alike, the source gives them in different places.

Tests used:
E. coli k12 = experiment: microbe, parasite or virus in culture; assay type: cell-based; settings: for MIC: Escherichia coli, K12, read-out: MIC E. coli k12
E. faecalis = experiment: microbe, parasite or virus in culture; assay type: cell-based; settings: for MIC: Enterococcus faecalis, read-out: MIC E. faecalis
MRSA NRS 70 = experiment: microbe, parasite or virus in culture; assay type: cell-based, S. aureus; settings: for MIC: Staphylococcus aureus, read-out: MIC MRSA NRS 70
B. anthracis = experiment: microbe, parasite or virus in culture; assay type: cell-based, Bacillus anthracis; settings: for MIC: Bacillus anthracis, read-out: MIC B. anthracis
Mtb H37Rv (ATCC 27294) = experiment: microbe, parasite or virus in culture; assay type: cell-based, Mycobacterium tuberculosis; settings: for MIC: Mycobacterium tuberculosis
Acinetobacter = experiment: microbe, parasite or virus in culture; assay type: cell-based; settings: for MIC: Acinetobacter, read-out: MIC Acinetobacter
S. aureus (MSSA) = experiment: microbe, parasite or virus in culture; assay type: cell-based; settings: for MIC: Staphylococcus aureus, MSSA, read-out: MIC S. aureus (MSSA)
E. coli tolc = experiment: microbe, parasite or virus in culture; assay type: cell-based; settings: for MIC: Escherichia coli, read-out: MIC E. coli tolc
Klebsiella = experiment: MIC against Klebsiella; assay type: cell-based; settings: Table 1
Description: (§1) The following compounds have been synthesized and tested for their activities against bacteria (Table 1) and their abilities to inhibit Dxr (Table 2). MIC is determined as described in Yendapally et al. (Journal of Medicinal Chemistry 2008, 51, 1487); and IC50 is determined as described in Henriksson et al. (Journal of Biological Chemistry 2007, 282, 19905).

S. pneumonia = experiment: MIC against S. pneumonia; assay type: cell-based; settings: Table 1
Description: as §1

P. aeruginosa = experiment: MIC against P. aeruginosa; assay type: cell-based; settings: Pseudomonas aeruginosa; Table 1
Description: as §1

[1] = read-out: Mtb MIC (ug/mL) (7H9)
[2] = read-out: Mtb MIC (ug/mL) (GAST)

CC(=O)N(O)CCCP(=O)(OC(C)OC(=O)c1ccccc1)OC(C)OC(=O)c1ccccc1 (stereo not shown) [Compound 27]
MIC E. coli k12 (E. coli k12): 50 µg/mL (≈ 101 µM)
MIC E. faecalis (E. faecalis): >200 µg/mL
MIC S. aureus (MRSA) (MRSA NRS 70): >200 µg/mL
MIC B. anthracis (B. anthracis): 50 µg/mL (≈ 101 µM)
MIC M. tuberculosis (H37Rv) (Mtb H37Rv (ATCC 27294)): 100 to 200 µg/mL
MIC Acinetobacter (Acinetobacter): 100 µg/mL (≈ 203 µM)
MIC S. aureus (MSSA) (S. aureus (MSSA)): >200 µg/mL
MIC E. coli tolc (E. coli tolc): 50 µg/mL (≈ 101 µM)

CCOP(=O)(CCCN(O)C(=O)c1ccccc1)OCC [ERJ 58]
MIC (E. coli k12): > 200 µg/mL
MIC (E. faecalis): > 200 µg/mL
MIC (Klebsiella): > 200 µg/mL
MIC (MRSA NRS 70): > 200 µg/mL
MIC (S. pneumonia): > 200 µg/mL
MIC (P. aeruginosa): > 200 µg/mL
MIC (B. anthracis): > 200 µg/mL
MIC (Mtb H37Rv (ATCC 27294); read-out: MIC H37 Rv): > 200 µg/mL
MIC (Mtb H37Rv (ATCC 27294); [1]): > 500 µg/mL
MIC (Mtb H37Rv (ATCC 27294); [2]): 31.2 µg/mL (≈ 99.1 µM)
MIC (Acinetobacter): > 200 µg/mL
MIC (S. aureus (MSSA)): > 200 µg/mL
MIC (E. coli tolc): > 200 µg/mL

CCOP(=O)(CCCN(O)C(=O)CCc1ccccc1)OCC [ERJ 70]
MIC (E. coli k12): > 200 µg/mL
MIC (E. faecalis): > 200 µg/mL
MIC (Klebsiella): > 200 µg/mL
MIC (MRSA NRS 70): > 200 µg/mL
MIC (S. pneumonia): > 200 µg/mL
MIC (P. aeruginosa): > 200 µg/mL
MIC (B. anthracis): > 200 µg/mL
MIC (Mtb H37Rv (ATCC 27294); read-out: MIC H37 Rv): > 200 µg/mL
MIC (Mtb H37Rv (ATCC 27294); [1]): 3.12 µg/mL (≈ 9.1 µM)
MIC (Mtb H37Rv (ATCC 27294); [2]): > 200 µg/mL
MIC (Acinetobacter): > 200 µg/mL
MIC (S. aureus (MSSA)): > 200 µg/mL
MIC (E. coli tolc): > 200 µg/mL

CCOP(=O)(CCCN(O)C(=O)CCCc1ccccc1)OCC [ERJ 79]
MIC (E. coli k12): > 200 µg/mL
MIC (E. faecalis): > 200 µg/mL
MIC (Klebsiella): > 200 µg/mL
MIC (MRSA NRS 70): 50 µg/mL (≈ 140 µM)
MIC (S. pneumonia): > 200 µg/mL
MIC (P. aeruginosa): > 200 µg/mL
MIC (B. anthracis): > 200 µg/mL
MIC (Mtb H37Rv (ATCC 27294); read-out: MIC H37 Rv): > 200 µg/mL
MIC (Mtb H37Rv (ATCC 27294); [1]): 3.12 µg/mL (≈ 8.74 µM)
MIC (Mtb H37Rv (ATCC 27294); [2]): > 200 µg/mL
MIC (Acinetobacter): > 200 µg/mL
MIC (S. aureus (MSSA)): 100 µg/mL (≈ 280 µM)
MIC (E. coli tolc): > 200 µg/mL

CCOP(=O)(CCCN(O)C(=O)Cc1ccccc1)OCC [ERJ 91]
MIC (E. coli k12): > 200 µg/mL
MIC (E. faecalis): > 200 µg/mL
MIC (Klebsiella): > 200 µg/mL
MIC (MRSA NRS 70): 50 µg/mL (≈ 152 µM)
MIC (S. pneumonia): > 200 µg/mL
MIC (P. aeruginosa): > 200 µg/mL
MIC (B. anthracis): > 200 µg/mL
MIC (Mtb H37Rv (ATCC 27294); read-out: MIC H37 Rv): > 200 µg/mL
MIC (Acinetobacter): > 200 µg/mL
MIC (S. aureus (MSSA)): 100 µg/mL (≈ 304 µM)
MIC (E. coli tolc): > 200 µg/mL

CCOP(=O)(CCCN(O)C(=O)c1cccc2ccccc12)OCC [ERJ 93]
MIC (E. coli k12): > 200 µg/mL
MIC (E. faecalis): 200 µg/mL (≈ 547 µM)
MIC (Klebsiella): > 200 µg/mL
MIC (MRSA NRS 70): 50 µg/mL (≈ 137 µM)
MIC (S. pneumonia): > 200 µg/mL
MIC (P. aeruginosa): > 200 µg/mL
MIC (B. anthracis): 200 µg/mL (≈ 547 µM)
MIC (Mtb H37Rv (ATCC 27294); read-out: MIC H37 Rv): > 200 µg/mL
MIC (Acinetobacter): > 200 µg/mL
MIC (S. aureus (MSSA)): 100 µg/mL (≈ 274 µM)
MIC (E. coli tolc): > 200 µg/mL

CCOP(=O)(CCCN(O)C(=O)c1ccc2ccccc2c1)OCC [ERJ 96]
MIC (E. coli k12): > 200 µg/mL
MIC (E. faecalis): > 200 µg/mL
MIC (Klebsiella): > 200 µg/mL
MIC (MRSA NRS 70): > 200 µg/mL
MIC (S. pneumonia): > 200 µg/mL
MIC (P. aeruginosa): > 200 µg/mL
MIC (B. anthracis): > 200 µg/mL
MIC (Mtb H37Rv (ATCC 27294); read-out: MIC H37 Rv): > 200 µg/mL
MIC (Acinetobacter): > 200 µg/mL
MIC (S. aureus (MSSA)): > 200 µg/mL
MIC (E. coli tolc): > 200 µg/mL

CCOP(=O)(CCCN(O)C(=O)c1ccc(-c2ccccc2)cc1)OCC [ERJ 104]
MIC (E. coli k12): > 200 µg/mL
MIC (E. faecalis): > 200 µg/mL
MIC (Klebsiella): > 200 µg/mL
MIC (MRSA NRS 70): 100 µg/mL (≈ 255 µM)
MIC (S. pneumonia): > 200 µg/mL
MIC (P. aeruginosa): > 200 µg/mL
MIC (B. anthracis): > 200 µg/mL
MIC (Mtb H37Rv (ATCC 27294); read-out: MIC H37 Rv): > 200 µg/mL
MIC (Acinetobacter): > 200 µg/mL
MIC (S. aureus (MSSA)): 100 µg/mL (≈ 255 µM)
MIC (E. coli tolc): 100 µg/mL (≈ 255 µM)
